Measured values: PMC8549260, “Crude extract and isolated bioactive compounds from Notholirion thomsonianum (Royale) Stapf as multitargets antidiabetic agents: in-vitro and molecular docking approaches” (BMC Complementary Medicine and Therapies, 2021)
Where two headings read alike, the source gives them in different places.

Key:
[1] = H2O2 free radicals scavenging assay; details: n = 3
Protocol: This method was used to determine the antioxidant potentials of crude extracts from N. thomsonianum. A solution of H2O2 (2 mM) was prepared in buffer solution of phosphate (50 mM, pH 7.40). In a test tube, 0.10 mL of crude extract was measured, and the volume was diluted to 0.40 mL by adding the phosphate buffer. Then 0.60 mL solution of H2O2 was added to it and was mixed properly. The absorbance of the crude sample and standard were recorded on 230 nm. The same procedure was repeated for all the crude samples.

[2] = ABTS free radicals scavenging assay; details: for ABTS Assay % Scavenging (mean ± SEM): n = 3
Protocol: Plant crude samples were also evaluated against ABTS free radicals using standard protocol. In this protocols, 7 mM solution of ABTS and 2.45 mM of potassium per sulfate were mixed and kept in dark at laboratory temperature for around 16 h till the color become dark. Solution of 0.01 M of phosphate buffer having pH 7.40 was mixed with it and absorbance was adjusted at 0.70 at 734 nm. Afterwards, solution of the plant extracts (300 μl) was added to ABTS solution (3 mL) and absorbance was recorded at 734 nm. Mixed the solution for 1 min and reduction in absorbance was recorded. The mixing and reduction were repeated for 6 min. The experiments were performed three times. The percent inhibitions and subsequent IC50 values of samples and standard ascorbic acid were calculated as per the standard procedure.

[3] = DPPH free radicals scavenging assay; details: for DPPH Assay % Scavenging (mean ± SEM) / DPPH Percent Inhibition (mean ± SEM): n = 3
Protocol: Plant samples solutions were prepared ranging from 125 to 1000 μg/ mL and were added to 0.004% methanolic solution of DPPH. Subsequent to 30 min incubation, absorbances were measured at 517 nm.
In free radicals’ assays including DPPH, ABTS and H2O2, the IC50s were calculated using same method.

α-amylase = biological target: T1, α-amylase (Homo sapiens, UniProt P04746); assay: In-vitro α-amylase inhibition; type: biochemical; details: for IC50: Table 3, isolated compounds series
T1 sequence (P04746 16-511): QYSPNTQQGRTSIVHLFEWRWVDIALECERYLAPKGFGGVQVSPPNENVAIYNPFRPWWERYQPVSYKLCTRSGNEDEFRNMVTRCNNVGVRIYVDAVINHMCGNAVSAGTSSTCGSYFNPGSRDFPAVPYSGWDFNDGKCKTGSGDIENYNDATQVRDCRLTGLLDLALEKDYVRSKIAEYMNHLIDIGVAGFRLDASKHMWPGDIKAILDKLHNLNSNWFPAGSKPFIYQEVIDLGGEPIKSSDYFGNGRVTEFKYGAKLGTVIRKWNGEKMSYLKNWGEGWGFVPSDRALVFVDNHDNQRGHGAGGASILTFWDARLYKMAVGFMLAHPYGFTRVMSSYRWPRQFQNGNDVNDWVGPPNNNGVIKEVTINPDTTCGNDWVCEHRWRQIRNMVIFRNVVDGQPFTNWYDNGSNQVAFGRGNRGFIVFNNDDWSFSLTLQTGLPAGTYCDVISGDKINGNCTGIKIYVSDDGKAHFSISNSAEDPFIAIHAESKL
Protocol: The amylase solution was prepared in phosphate buffer followed by addition of different concentrations of plant extracts and isolated compounds. The solutions of test samples in enzyme solution were allowed to react. The solutions were incubated for a specific temperature and were added starch solution. Afterwards, a solution of dinitrosalicylic acid was added to both of the groups, i.e. sample and control solution groups. The solutions were then allowed to heat up in boiling water for a few min. […] The experiments were performed in triplicates and percent inhibitions were calculated as per the reported formula. […]

Yeast α-Glucosidase = Yeast α-Glucosidase (Saccharomyces cerevisiae, UniProt P53341); assay: biochemical; details: for IC50: α-Glucosidase IC50, Table 3, isolated compounds series
Chain of Yeast α-Glucosidase (P53341 whole entry): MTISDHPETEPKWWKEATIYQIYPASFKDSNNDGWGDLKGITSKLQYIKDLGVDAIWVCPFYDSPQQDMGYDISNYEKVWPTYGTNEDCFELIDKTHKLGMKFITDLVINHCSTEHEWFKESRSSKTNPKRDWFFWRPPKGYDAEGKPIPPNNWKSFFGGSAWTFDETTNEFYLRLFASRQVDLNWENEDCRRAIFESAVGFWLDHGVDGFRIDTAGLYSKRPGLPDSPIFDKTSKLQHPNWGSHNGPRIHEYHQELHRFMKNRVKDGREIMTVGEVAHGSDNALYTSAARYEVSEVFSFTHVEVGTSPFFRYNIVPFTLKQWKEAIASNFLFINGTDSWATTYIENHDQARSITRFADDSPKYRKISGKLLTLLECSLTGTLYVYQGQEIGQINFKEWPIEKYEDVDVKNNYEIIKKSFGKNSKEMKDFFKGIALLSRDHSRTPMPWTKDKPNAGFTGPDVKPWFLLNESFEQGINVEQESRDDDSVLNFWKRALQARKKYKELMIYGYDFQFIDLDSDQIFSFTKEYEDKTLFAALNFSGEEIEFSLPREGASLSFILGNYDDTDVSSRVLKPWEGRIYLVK
Protocol: In 0.10 M of phosphate buffer having pH of 6.90, the α-glucosidase enzyme solution was prepared (0.50 U/ mL). […] The same solution without the enzyme was used as a blank. The absorbances were recorded at 405 nm. All the experiments were repeated in triplicate. The percent inhibitions and subsequent IC50 (in μg/mL and also in μM) were calculated accordingly. […]

PTP1B = biological target: T2, PTP1B (Homo sapiens, UniProt P18031); assay: Protein tyrosine phosphatase 1B inhibition; type: biochemical
T2 sequence (P18031 1-435): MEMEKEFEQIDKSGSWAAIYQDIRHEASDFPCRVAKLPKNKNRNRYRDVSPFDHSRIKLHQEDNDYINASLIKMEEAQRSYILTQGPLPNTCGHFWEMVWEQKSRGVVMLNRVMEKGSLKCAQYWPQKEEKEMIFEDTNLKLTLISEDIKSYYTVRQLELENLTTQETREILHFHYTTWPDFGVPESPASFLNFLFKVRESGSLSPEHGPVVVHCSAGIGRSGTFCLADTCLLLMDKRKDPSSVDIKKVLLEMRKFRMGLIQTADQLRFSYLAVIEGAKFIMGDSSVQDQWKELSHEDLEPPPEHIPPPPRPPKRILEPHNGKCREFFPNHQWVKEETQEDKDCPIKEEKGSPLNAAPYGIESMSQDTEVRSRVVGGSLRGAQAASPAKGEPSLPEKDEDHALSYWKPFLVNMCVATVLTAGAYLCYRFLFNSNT
Protocol: The solutions were then incubated for 40 min at 27 °C and absorbances were recorded at 405 nm using microplate reader. The experiments were repeated three times and percent inhibitions followed by IC50 values were recorded accordingly.

[4] = read-out: Alpha amylase Percent Inhibition (mean ± SEM)
[5] = read-out: α-Amylase Percent Inhibition (mean ± SEM)
[6] = read-out: Alpha glucosidase Percent Inhibition (mean ± SEM)
[7] = read-out: α-Glucosidase Percent Inhibition (mean ± SEM)
[8] = Table 3, 125 μg/mL, n = 3, read-out: α-Amylase Percent Inhibition (mean ± SEM) (converted)
[9] = Table 3, 250 μg/mL, n = 3, read-out: α-Amylase Percent Inhibition (mean ± SEM) (converted)
[10] = Table 3, 500 μg/mL, n = 3, read-out: α-Amylase Percent Inhibition (mean ± SEM)
[11] = 125 μg/mL, n = 3, read-out: PTP1B Percent Inhibition (mean ± SEM) (converted)
[12] = 250 μg/mL, n = 3, read-out: PTP1B Percent Inhibition (mean ± SEM) (converted)
[13] = 500 μg/mL, n = 3, read-out: PTP1B Percent Inhibition (mean ± SEM)
[14] = read-out: PTP1B Percent Inhibition (mean ± SEM)

SMILES	DPPH Percent Inhibition (mean ± SEM) ([3]; Table 4, 125 μg/mL)	DPPH Percent Inhibition (mean ± SEM) ([3]; Table 4, 250 μg/mL)	DPPH Percent Inhibition (mean ± SEM) ([3]; Table 4, 500 μg/mL)	inhibition at 125 µg/mL (α-amylase; [5])	inhibition at 250 µg/mL (α-amylase; [5])	inhibition at 500 µg/mL (α-amylase; [5])	inhibition at 125 µg/mL (Yeast α-Glucosidase; [7])	inhibition at 250 µg/mL (Yeast α-Glucosidase; [7])	inhibition at 500 µg/mL (Yeast α-Glucosidase; [7])	inhibition at 125 µg/mL (α-amylase; [8])	inhibition at 250 µg/mL (α-amylase; [9])	inhibition at 500 µg/mL (α-amylase; [10])	IC50 (α-amylase)	IC50 (α-amylase; based on molecular weight)	IC50 (PTP1B)	inhibition at 125 µg/mL (PTP1B; [11])	inhibition at 250 µg/mL (PTP1B; [12])	inhibition at 500 µg/mL (PTP1B; [13])	IC50 (PTP1B; based on molecular weight)	IC50 (Yeast α-Glucosidase)	other results
O=C1O[C@H]([C@@H](O)CO)C(O)=C1O [AA, Ascorbic acid]	85.20 ± 0.49%	88.47 ± 0.71%	91.75 ± 0.42%	–	–	–	–	–	–	–	–	–	–	–	–	–	–	–	–	–	H2O2 Assay % Scavenging (mean ± SEM) ([1]; 125 μg/mL): 68.00 ± 0.57%; H2O2 Assay % Scavenging (mean ± SEM) ([1]; 250 μg/mL): 71.50 ± 0.60%; H2O2 Assay % Scavenging (mean ± SEM) ([1]; 500 μg/mL): 74.66 ± 0.49%; H2O2 Assay % Scavenging (mean ± SEM) ([1]; 1000 μg/mL): 83.33 ± 0.88%; ABTS Assay IC50 [2]: < 0.1 µg/mL; ABTS Assay % Scavenging (mean ± SEM) ([2]; 125 μg/mL): 78.46 ± 0.58%; ABTS Assay % Scavenging (mean ± SEM) ([2]; 250 μg/mL): 80.43 ± 0.55%; ABTS Assay % Scavenging (mean ± SEM) ([2]; 500 μg/mL): 86.53 ± 0.60%; ABTS Assay % Scavenging (mean ± SEM) ([2]; 1000 μg/mL): 87.60 ± 0.40%; DPPH Assay % Scavenging (mean ± SEM) ([3]; Table 2, 125 μg/mL): 76.54 ± 0.54%; DPPH Assay % Scavenging (mean ± SEM) ([3]; Table 2, 250 μg/mL): 81.33 ± 0.88%; DPPH Assay % Scavenging (mean ± SEM) ([3]; Table 2, 500 μg/mL): 87.84 ± 0.26%; DPPH Assay % Scavenging (mean ± SEM) ([3]; Table 2, 1000 μg/mL): 92.55 ± 0.35%; DPPH Assay IC50 ([3]; Table 2, crude extracts series): < 0.1 µg/mL
C[C@H]1O[C@H](O[C@H]2[C@H](O)[C@@H](O)[C@@H](O[C@H]3[C@H](O)[C@@H](O)C(O)O[C@@H]3CO)O[C@@H]2CO)[C@H](O)[C@@H](O)[C@@H]1N[C@H]1C=C(CO)[C@@H](O)[C@H](O)[C@H]1O (some centres unmarked) [Acarbose, reference compound]	–	–	–	83.9%	89.5%	95.23 ± 0.22%	77.6%	82.4%	87.08 ± 0.47%	–	–	–	–	–	–	–	–	–	–	–	inhibition at 125 µg/mL (α-amylase; [4]): 64.5%; inhibition at 250 µg/mL (α-amylase; [4]): 69%; inhibition at 500 µg/mL (α-amylase; [4]): 71.7%; inhibition at 1000 µg/mL (α-amylase; [4]): 78.63 ± 0.54%; inhibition at 125 µg/mL (Yeast α-Glucosidase; [6]): 61.5%; inhibition at 250 µg/mL (Yeast α-Glucosidase; [6]): 67.5%; inhibition at 500 µg/mL (Yeast α-Glucosidase; [6]): 73.9%; inhibition at 1000 µg/mL (Yeast α-Glucosidase; [6]): 76.87 ± 0.06%
CC(C)=CC(=O)CC(C)c1ccc(C)cc1 (centres unmarked) [Nt01]	79.62 ± 0.03%	84.36 ± 1.15%	88.35 ± 0.89%	–	–	–	44.4%	51.9%	55.6 ± 1.06%	67.9%	72.1%	77.8 ± 2.24%	< 144 µM	< 145 µM	< 144 µM	83.4%	88.7%	90.09 ± 0.32%	< 145 µM	–	–
CCCC/C=C/C=O [Nt02]	74.78 ± 0.44%	79.32 ± 0.40%	86.60 ± 0.00%	78.4%	85.3%	91.36 ± 0.49%	66.9%	71.1%	76.8 ± 2.24%	–	–	–	< 279 µM	< 279 µM	< 279 µM	–	–	–	< 279 µM	< 279 µM	IC50 (Yeast α-Glucosidase; based on molecular weight): < 279 µM; inhibition at 125 µg/mL (PTP1B; [14]): 85.8%; inhibition at 250 µg/mL (PTP1B; [14]): 90.9%; inhibition at 500 µg/mL (PTP1B; [14]): 93.03 ± 0.48%
Cc1c(C)c2c(c(C)c1O)CCC(C)(CCCC(C)CCCC(C)CCCC(C)C)O2 (centres unmarked) [Nt03]	84.44 ± 0.15%	87.14 ± 0.49%	90.69 ± 0.14%	–	–	–	70.6%	73.4%	78.35 ± 0.23%	80.6%	86.5%	93.1 ± 1.04%	< 72.6 µM	< 72.7 µM	< 72.6 µM	82.3%	87.2%	90.83 ± 0.47%	< 72.7 µM	< 72.6 µM	IC50 (Yeast α-Glucosidase; based on molecular weight): < 72.7 µM
C[C@H]1[C@H](C)CC[C@]2(C(=O)O)CC[C@]3(C)C(=CC[C@@H]4[C@@]5(C)CC[C@H](O)C(C)(C)[C@@H]5CC[C@]43C)[C@H]12 [Ursolic acid, reference compound]	–	–	–	–	–	–	–	–	–	–	–	–	–	–	–	91.5%	93.6%	98.7 ± 1.32%	–	–	–
